Assays:
Assay in all cases: relative viability (nuclei count vs DMSO), 5 days (fraction); higher = more cells survive
ALW-II-49-7 + Trametinib = compound: Cc1ccc(C(=O)Nc2cccc(C(F)(F)F)c2)cc1Nc1cncc(C(N)=O)c1 [ALW-II-49-7] + CC(=O)Nc1cccc(-n2c(=O)n(C3CC3)c(=O)c3c(Nc4ccc(I)cc4F)n(C)c(=O)c(C)c32)c1 [Trametinib] (partner 0.02 µM)
Summary of the method: (§1)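 Relative viability was taken as the ratio of nuclei in treated wells to nuclei in vehicle wells. Lung cancer cell lines in 1536-well plates received compounds by pin tool one day after seeding, either one drug alone or a fixed anchor-drug dose plus five library-drug doses (not always all listed) in √10 steps. Nuclei were counted on 4× images after 5 days of treatment, and values are medians of duplicate plates.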

ALW-II-49-7 + Phenformin = compound: Cc1ccc(C(=O)Nc2cccc(C(F)(F)F)c2)cc1Nc1cncc(C(N)=O)c1 [ALW-II-49-7] + N=C(N)NC(=N)NCCc1ccccc1 [Phenformin] (partner 250 µM)
Summary of the method: as §1

XMD13-2 + Tozasertib = compound: C1CC1C(=O)NC2=NNC3=C2C=CC(=C3)C4=CC(=CC=C4)C(=O)NC5CC5 [XMD13-2] + Cc1cc(Nc2cc(N3CCN(C)CC3)nc(Sc3ccc(NC(=O)C4CC4)cc3)n2)n[nH]1 [Tozasertib] (partner 0.1 µM)
Summary of the method: as §1

ALW-II-49-7 + Dasatinib = compound: Cc1ccc(C(=O)Nc2cccc(C(F)(F)F)c2)cc1Nc1cncc(C(N)=O)c1 [ALW-II-49-7] + Cc1nc(Nc2ncc(C(=O)Nc3c(C)cccc3Cl)s2)cc(N2CCN(CCO)CC2)n1 [Dasatinib] (partner 0.075 µM)
Summary of the method: as §1

Row | Cell Line | relative viability (ALW-II-49-7 + Trametinib; first compound 0.08 µM) | relative viability (ALW-II-49-7 + Trametinib; first compound 0.253 µM) | relative viability (ALW-II-49-7 + Trametinib; first compound 0.8 µM) | relative viability (ALW-II-49-7 + Trametinib; first compound 2.53 µM) | relative viability (ALW-II-49-7 + Trametinib; first compound 8 µM) | relative viability (ALW-II-49-7 + Phenformin; first compound 0.08 µM) | relative viability (ALW-II-49-7 + Phenformin; first compound 0.253 µM) | relative viability (ALW-II-49-7 + Phenformin; first compound 0.8 µM) | relative viability (ALW-II-49-7 + Phenformin; first compound 2.53 µM) | relative viability (ALW-II-49-7 + Phenformin; first compound 8 µM) | relative viability (XMD13-2 + Tozasertib; first compound 0.05 µM) | relative viability (XMD13-2 + Tozasertib; first compound 0.1581 µM) | relative viability (XMD13-2 + Tozasertib; first compound 0.5 µM) | relative viability (XMD13-2 + Tozasertib; first compound 1.581 µM) | relative viability (XMD13-2 + Tozasertib; first compound 5 µM) | relative viability (ALW-II-49-7 + Dasatinib; first compound 0.08 µM) | relative viability (ALW-II-49-7 + Dasatinib; first compound 0.253 µM) | relative viability (ALW-II-49-7 + Dasatinib; first compound 0.8 µM) | relative viability (ALW-II-49-7 + Dasatinib; first compound 2.53 µM) | relative viability (ALW-II-49-7 + Dasatinib; first compound 8 µM)
1 | NCI-H727 | 0.393 | 0.378 | 0.354 | 0.357 | 0.365 | 0.52 | 0.593 | 0.537 | 0.475 | 0.51 | 0.577 | 0.652 | 0.666 | 0.617 | 0.627 | 0.352 | 0.324 | 0.193 | 0.412 | 0.446
2 | NCI-H838 | 0.631 | 0.531 | 0.433 | 0.49 | 0.453 | 0.412 | 0.45 | 0.628 | 0.626 | 0.442 | 0.277 | 0.27 | 0.263 | 0.293 | 0.247 | 0.395 | 0.34 | 0.294 | 0.257 | 0.255
3 | H3255 | 0.856 | 0.52 | 0.681 | 0.62 | 0.455 | 0.442 | 0.394 | 0.373 | 0.331 | 0.329 | 0.567 | 0.844 | 0.757 | 0.487 | 0.507 | 0.436 | 0.234 | 0.431 | 0.322 | 0.348
4 | EPLC-272H | 0.245 | 0.27 | 0.281 | 0.305 | 0.239 | 0.29 | – | 0.23 | 0.342 | 0.303 | 0.228 | 0.289 | 0.262 | 0.269 | 0.136 | 0.283 | – | 0.26 | 0.345 | 0.375
5 | NCI-H647 | 0.434 | 0.475 | 0.453 | 0.441 | 0.239 | 0.312 | 0.325 | 0.551 | 0.539 | 0.326 | 0.585 | 0.265 | 0.176 | 0.229 | 0.135 | 0.153 | 0.131 | 0.15 | 0.161 | 0.193
6 | LXF-289 | 0.604 | 0.715 | 0.681 | 0.67 | 0.626 | 0.515 | 0.554 | 0.556 | 0.536 | 0.526 | 0.232 | 0.195 | 0.194 | 0.208 | 0.177 | 0.213 | 0.286 | 0.24 | 0.187 | 0.183
7 | NCI-H1650 | 0.438 | 0.688 | 0.557 | 0.666 | 0.78 | 0.447 | 0.465 | 0.427 | 0.492 | 0.476 | 0.439 | 0.36 | 0.471 | 0.381 | 0.588 | 0.273 | 0.306 | 0.323 | 0.282 | 0.341
8 | NCI-H1755 | 0.724 | 0.879 | 0.786 | 0.747 | 0.681 | 0.584 | 0.627 | 0.612 | 0.55 | 0.405 | 0.664 | 0.575 | 0.498 | 0.543 | 0.494 | 0.397 | 0.442 | 0.459 | 0.408 | 0.308
9 | HCC-15 | 0.396 | 0.4 | 0.399 | 0.353 | 0.387 | 0.488 | 0.433 | 0.456 | 0.544 | 0.399 | 0.522 | 0.422 | 0.402 | 0.425 | 0.463 | 0.667 | 0.614 | 0.692 | 0.684 | 0.664
10 | EMC-BAC-2 | 0.966 | 0.92 | 0.998 | 0.857 | 0.755 | 0.426 | 0.513 | 0.505 | 0.454 | 0.338 | 0.284 | 0.28 | 0.19 | 0.273 | 0.267 | 0.311 | 0.324 | 0.284 | 0.293 | 0.29
11 | NCI-H1734 | 0.641 | 0.749 | 0.668 | 0.622 | 0.593 | 0.345 | 0.359 | 0.385 | 0.381 | 0.335 | 0.258 | 0.245 | 0.271 | 0.228 | 0.205 | 0.483 | 0.414 | 0.485 | 0.463 | 0.332
12 | NCI-H1395 | 0.906 | 1.1 | 1.3 | – | 0.938 | 0.438 | 0.512 | 0.419 | 0.475 | 0.428 | 0.716 | 0.735 | 0.796 | 0.787 | 0.807 | 0.436 | 0.457 | 0.407 | 0.431 | 0.417
13 | HOP-62 | 0.389 | 0.364 | 0.402 | 0.452 | 0.465 | 0.585 | 0.598 | 0.611 | 0.696 | 0.429 | 0.363 | 0.418 | 0.399 | 0.393 | 0.271 | 0.635 | 0.617 | 0.56 | 0.616 | 0.495
14 | LK-2 | 0.963 | 0.583 | 0.636 | – | 0.479 | – | 0.476 | 0.388 | 0.48 | 0.349 | 0.187 | 0.169 | 0.173 | 0.18 | 0.149 | – | 0.271 | 0.252 | 0.31 | 0.336
15 | SW 1573 | 0.561 | 0.556 | 0.611 | 0.637 | 0.491 | 0.347 | 0.385 | 0.374 | 0.479 | 0.398 | 0.196 | 0.167 | 0.155 | 0.145 | 0.354 | 0.473 | 0.399 | 0.568 | 0.514 | 0.304
16 | SK-LU-1 | 0.569 | 0.571 | 0.486 | 0.408 | 0.442 | 0.445 | 0.583 | 0.519 | 0.445 | 0.435 | 0.335 | 0.338 | 0.432 | 0.309 | 0.323 | 0.17 | 0.207 | 0.206 | 0.175 | 0.197
17 | NCI-H23 | 0.434 | 0.371 | 0.448 | 0.37 | 0.37 | 0.855 | 0.759 | 0.705 | 0.857 | 0.898 | 0.325 | 0.382 | 0.397 | 0.644 | 0.355 | 0.84 | 0.871 | 0.574 | 0.706 | 0.768
18 | NCI-H1355 | 0.371 | 0.467 | 0.474 | 0.384 | 0.438 | 0.457 | 0.4 | 0.4 | 0.443 | 0.379 | 0.64 | 0.631 | 0.638 | 0.548 | 0.589 | 0.615 | 0.731 | 0.622 | 0.573 | 0.658
19 | COR-L23 | 0.576 | 0.514 | 0.648 | 0.566 | 0.43 | 0.461 | 0.448 | 0.426 | 0.462 | 0.363 | 0.232 | 0.18 | 0.197 | 0.18 | 0.185 | 0.483 | 0.419 | 0.45 | 0.443 | 0.523
20 | NCI-H2023 | 0.468 | 0.557 | 0.69 | 0.503 | 0.53 | 0.384 | 0.467 | 0.403 | 0.395 | 0.319 | 0.524 | 0.34 | 0.372 | 0.281 | 0.309 | 0.547 | 0.547 | 0.603 | 0.573 | 0.437
21 | A-427 | 0.733 | 0.777 | 0.761 | 0.691 | 0.585 | 0.216 | 0.305 | 0.316 | 0.357 | 0.27 | 0.213 | 0.199 | 0.2 | 0.159 | 0.195 | 0.686 | 0.824 | 0.733 | 0.741 | 0.627
22 | NCI-H1793 | 0.365 | 0.404 | 0.486 | 0.409 | 0.443 | 0.41 | 0.35 | 0.258 | 0.302 | 0.297 | 0.432 | – | 0.334 | 0.379 | 0.322 | 0.398 | 0.387 | 0.296 | 0.348 | 0.406
23 | NCI-H596 | 0.684 | 0.786 | 0.769 | 0.791 | 0.912 | 0.804 | 0.706 | 0.596 | 0.622 | 0.788 | 0.901 | 0.942 | 0.816 | 0.89 | 1.03 | 0.575 | 0.632 | 0.459 | 0.582 | 0.581
24 | LU99A | – | 0.622 | 0.62 | 0.374 | 0.399 | 0.845 | 0.923 | 0.82 | 0.988 | 0.746 | 0.301 | 0.294 | 0.287 | 0.263 | 0.272 | 0.62 | 0.486 | 0.576 | 0.498 | 0.75
25 | NCI-H2009 | 0.247 | 0.32 | 0.299 | 0.341 | 0.266 | 0.463 | 0.49 | 0.444 | 0.334 | 0.283 | 0.849 | 0.7 | 0.798 | 0.728 | 0.749 | 0.284 | 0.29 | 0.289 | 0.264 | 0.252
